Earlier results, collected in US20190357582A1, “Methods For Inducing Adipocyte Browning, Improving Metabolic Flexibility, And Reducing Detrimental White Adipose Tissue Deposition And Dysfunction” (MEAD JOHNSON NUTRITION COMPANY, priority 2017, published 2019).

Tested on: UCP1
Conditions: positive control for browning

Compound: COc1ccc2c(c1)[nH]c1c(C)nccc12 [Harmine]
- browning activity: browning activity
